# Laboratory results published in patent US20090117406A1, “CONCENTRATE FOR FILM PRESERVATION” (priority 2006, published 2009).
# What was measured:
# [1] = system: Aspergillus niger DSM 1988, Penicillium expansum DSM 1282 and Trichoderma viride DSM 63064; assay: Fungicide trial with weathering on plaster test pieces (VdL guideline 06), fungus mix 2; format: cell-based; conditions: rating after 21 days 0 or 1, for mixtures order of ppm follows order of active agents
# Description: (§1) The sample to be tested is plaster. The untreated sample is equipped with the cited biocides or single active agents in different concentrations. […] For preparing the samples the plaster is equipped with biocides and from that test pieces are formed. For that purpose for each test piece 7 g plaster are weighed in a small plastic mould and spread evenly. For complete drying the plaster test pieces are stored for three days at room temperature. The prepared test bodies are put in 100 ml tap water each for three days the water being exchanged daily. Then a 15 h phase of drying follows in a circulation air cabinet at 50° C. and 60 circles/min. After three days of equi libration at room temperature the test pieces are sterilised superficially and brought in the biological test. The superficial sterilisation is carried directly before putting them on the nutritive substratum by a exposure to UV radiation on both sides each for 10 minutes under a mercury medium pressure radiator. The evaluations for fungus are carried out on malt extract agar (for example by Fluka). For mix 1 Alternaria alternata DSM 62010 and Ulocladium consortial DSM 6201 is used. For mix 2 Aspergillus niger DSM 1988, Penicillium expansum DSM 1282 and Trichoderma viride DSM 63064 is used. These are used as about 14 days old cultures on inclined agar tubes for producing suspension. For that purpose to each tube 3 ml sterile Ringer's solution are added, and then washed away with a sterile os (this corresponds with a germination index of about 10^8 to 10^9 KBE/ml [KBE=(Kolonie bildende Einheiten) units forming colonies]). […] The nutritive substratum with the put-on test pieces is injected with one of the listed fungus mixtures and incubated at room temperature. After 7, 14 and 21 days the test pieces are evaluated with respect to the fungus growth according to the following rating: 00=sample surface without fouling, with inhibitory aureole around test piece 0=sample surface without fouling, without inhibitory aureole around test piece […] […]
# [2] = system: Alternaria alternata DSM 62010 and Ulocladium consortial DSM 6201; assay: Fungicide trial with weathering on plaster test pieces (VdL guideline 06), fungus mix 1; format: cell-based; conditions: rating after 21 days 0 or 1, for mixtures order of ppm follows order of active agents
# Description: as §1
Compound,ppm a.i. in plaster dosed additionally (minimal ppm concentration as fungus growth is obstructed clearly) [1],ppm a.i. in plaster dosed additionally (minimal ppm concentration as fungus growth is obstructed clearly) [2]
"CCCCCCCCn1sccc1=O [OIT, 2-octyl-2H-isothiazole-3-one]",>500(#) ppm,200 ppm
"CCCC1COC(Cn2cncn2)(c2ccc(Cl)cc2Cl)O1 (stereo not drawn) [Propiconazol, 1-[[2-(2,4-dichlorphenyl)-4-propyl-1,3-dioxolane-2-yl]methyl] 1 H-1,2,4-triazol]",>2000(#) ppm,2000 ppm
"N#Cc1c(Cl)c(Cl)c(Cl)c(C#N)c1Cl [CTL, 1,3-dicyano-2,4,5,6-tetrachlorbenzole]",800 ppm,400 ppm
